Each structure is given as a SMILES string.

Assay [1] has as its target T1, SERCA1a (skeletal SR vesicles) (Oryctolagus cuniculus, UniProt P04191).
T1 construct: rabbit muscles were freshly harvested from the back and hind leg of New Zealand White rabbits and purified using a sucrose gradient; from tissue; host or cells: rabbit (New Zealand White) back and hind leg skeletal muscle, light SR vesicles
Nature of the assay: Oxalate-supported Ca2+-uptake assay, skeletal SR (CRC at pCa 5.4). The assay is classed as biochemical, rabbit. The note with it: pCa 5.4, mean ± SD, n = 3, dash = no observable effect; for Skeletal SR Ca^2+ Uptake Activity Percent Increase: maximal effect of CRC; for EC50: read-out: Skeletal SR Ca^2+ Uptake Activity EC50. The procedure: (§1) For skeletal SR, rabbit muscles were freshly harvested from the back and hind leg of New Zealand White rabbits and purified using a sucrose gradient. The resulting light skeletal SR contains 80% SERCA, as a proportion of total protein content. Cardiac SR vesicles were isolated from fresh porcine left ventricular tissue.
(§2) To determine compound effect on the Ca^2+-uptake activity of SERCA1a and SERCA2a, we used an oxalate-supported assay. A solution containing 50 mM MOPS (pH 7.0), 100 mM KCl, 30 mg/mL sucrose, 1 mM EGTA, 10 mM potassium oxalate, 2 µM Fluo-4, 30 µg/mL cardiac SR vesicles or 12 μg/mL skeletal SR vesicles, and CaCl2 calculated to reach the desired free [Ca^2+] was dispensed into 384-well black walled, transparent bottomed plates (Greiner Bio-One) containing the tested small molecule and incubated at 21 °C for 20 min while covered and protected from light. To start the reaction, MgATP was added to a final concentration of 5 mM, and the decrease in 485-nm excited fluorescence was monitored at 520 nm for 15 min using a FLIPR Tetra (Molecular Devices, San Jose, CA, USA).
While Ca^2+-dependent ATPase activity is a direct measure of SERCA activity, coupling of ATP hydrolysis to transport of Ca^2+ across the SR membrane is essential for the role of SERCA in cellular physiology. Therefore, we next asked whether our ATPase-based HTS assay could successfully identify compounds that also increase Ca^2+ uptake of SERCA.

Assay [2] addresses T2, SERCA2a (cardiac SR vesicles) (Sus scrofa, UniProt P11607).
T2 construct: Cardiac SR vesicles were isolated from fresh porcine left ventricular tissue; from tissue; host or cells: porcine left ventricular tissue, cardiac SR vesicles
Kind of assay: Oxalate-supported Ca2+-uptake assay, cardiac SR (CRC at pCa 5.4). It is filed as biochemical, porcine. The note with it: pCa 5.4, mean ± SD, n = 3, dash = no observable effect; for Cardiac SR Ca^2+ Uptake Activity Percent Increase: maximal effect of CRC; for EC50: read-out: Cardiac SR Ca^2+ Uptake Activity EC50. As to the method: as §1, §2
To determine whether the observed increases in SERCA2a ATPase activity translate to Ca^2+ uptake function, we applied our Ca^2+ transport assay to test our selected Hit compounds in cardiac SR (Table 1). Indeed, 16 of the 19 compounds yielded a clear increase in Ca^2+ uptake activity. In fact, eight compounds generated an increase at least 50% greater in cardiac SR than in skeletal SR. Three compounds had either an inhibitory or no effect on Ca^2+ transport, and two of these were also non-activating compounds in skeletal SR.

The target in assay [3] is T3, SERCA1a (rabbit light skeletal SR vesicles) (Oryctolagus cuniculus, UniProt P04191).
T3 construct: rabbit muscles were freshly harvested from the back and hind leg of New Zealand White rabbits and purified using a sucrose gradient; from tissue; host or cells: rabbit (New Zealand White) back and hind leg skeletal muscle, light SR vesicles
T3 sequence (P04191 1-994 isoform P04191-2): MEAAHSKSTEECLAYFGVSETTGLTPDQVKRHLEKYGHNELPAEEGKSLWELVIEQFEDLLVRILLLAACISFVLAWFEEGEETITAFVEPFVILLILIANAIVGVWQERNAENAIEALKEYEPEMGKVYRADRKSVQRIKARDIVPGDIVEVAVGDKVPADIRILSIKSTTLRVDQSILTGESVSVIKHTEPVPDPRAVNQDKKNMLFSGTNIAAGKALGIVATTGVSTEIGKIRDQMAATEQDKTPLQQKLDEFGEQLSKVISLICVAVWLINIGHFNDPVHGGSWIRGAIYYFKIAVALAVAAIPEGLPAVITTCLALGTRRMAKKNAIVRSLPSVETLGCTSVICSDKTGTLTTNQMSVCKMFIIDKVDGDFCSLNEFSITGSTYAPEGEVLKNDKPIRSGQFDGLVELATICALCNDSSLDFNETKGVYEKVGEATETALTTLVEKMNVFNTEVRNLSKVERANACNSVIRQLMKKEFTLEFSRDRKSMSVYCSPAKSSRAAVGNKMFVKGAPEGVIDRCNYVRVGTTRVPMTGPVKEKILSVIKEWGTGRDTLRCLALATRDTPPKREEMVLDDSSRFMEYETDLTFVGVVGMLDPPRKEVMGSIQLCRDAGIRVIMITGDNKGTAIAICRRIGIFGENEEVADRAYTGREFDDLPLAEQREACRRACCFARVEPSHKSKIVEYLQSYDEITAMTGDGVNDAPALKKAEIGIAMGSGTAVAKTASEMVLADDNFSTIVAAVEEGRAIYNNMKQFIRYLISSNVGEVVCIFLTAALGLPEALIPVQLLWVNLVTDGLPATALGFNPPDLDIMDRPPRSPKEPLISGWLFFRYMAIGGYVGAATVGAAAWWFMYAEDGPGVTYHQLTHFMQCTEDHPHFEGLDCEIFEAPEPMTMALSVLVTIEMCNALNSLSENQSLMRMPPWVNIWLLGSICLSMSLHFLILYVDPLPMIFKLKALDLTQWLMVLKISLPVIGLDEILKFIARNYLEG
Kind of assay: NADH-coupled Ca-ATPase activity assay, skeletal SR (CRC at pCa 5.4). It is filed as biochemical. The note with it: n = 3; for Skeletal SR ATPase Activity Percent Increase: maximal effect of CRC 0.05 to 50 µM, pCa 5.4, relative to DMSO, mean ± SD; for EC50: pCa 5.4, mean ± SD. As to the method: as §1
(§3) Functional assays were performed using rabbit light skeletal sarcoplasmic (SR) vesicles. For high-throughput NADH-coupled screening, assay mix containing a final concentration of 50 mM MOPS (pH 7.0), 100 mM KCl, 1 mM EGTA, 0.2 mM NADH, 1 mM phosphoenol pyruvate, 10 IU/mL of pyruvate kinase, 10 IU/mL of lactate dehydrogenase, 1 µM of the calcium ionophore A23187, 4 µg/mL skeletal SR, and added CaCl2 to obtain pCa 5.4 was dispensed into 384-well DIVERSet assay plates containing 50 nL of compound or DMSO using a FlexDrop Precision liquid dispenser (Perkin Elmer, Waltham, Massachusetts). Plates were sealed, covered from light, and incubated at room temperature for 20 min. The assay was then started by dispensing MgATP (termed “initiation mix”), to a final concentration of 5 mM in each well (80 µL total assay volume) with the FlexDrop liquid dispenser (Perkin Elmer). The time dependence of absorbance was measured at 340 nm in a SpectraMax Plus384 microplate spectrophotometer (Molecular Devices, Sunnyvale, CA). For follow-up concentration response curves of Hit compounds, 400 nL of either compound or DMSO was dispensed into each well using an Echo liquid dispenser (Beckman Coulter). Testing dose-dependent compound effects on rabbit skeletal SR vesicles was done using the same method, as described above in 384-well plates. Determining compound effects on cardiac SR vesicles was done in a similar method as above, with the exception of 10 µg/mL of cardiac SR incubated in assay mix consisting of a final concentration of 50 mM MOPS (pH 7.0), 100 mM KCl, 1 mM EGTA, 1 µM of the calcium ionophore A23187, and added CaCl2 to the desired free calcium values. After a 20 min incubation, the “initiation mix”, containing a final concentration of 0.2 mM NADH, 1 mM phosphoenol pyruvate, 10 IU/mL of pyruvate kinase, 10 IU/mL of lactate dehydrogenase, and 5mM MgATP, was dispensed into each well.
The initial screen assay was performed with compounds at 10 µM. To better study the selected Hit compounds for their activation potential, we performed ATPase analyses (in triplicate) over a range of Hit concentrations (0.05 to 50 µM), generating concentration-response curves (CRCs) to determine maximal effects and EC50 (Figure 2). We used the same Ca^2+ concentration (pCa 5.4) as in the screening assays, thus focusing on the effects on the maximal velocity of SERCA. Two of the selected Hits yielded no response in follow-up assays, probably due to a mismatch in chemical composition between the library compound and the subsequently ordered compound (DS95401435 and DS41547941). This type of discrepancy is a typical hurdle in the screening process. Each of the other 19 compounds produced a substantial increase in ATPase activity, ranging from 30% to 72% (Table 1 and Supporting Information, Figure S1), as expected due to similarity of the CRC assay to the initial screen.

Assay [4] has as its target T2, SERCA2a (cardiac SR vesicles). Nature of the assay: NADH-coupled Ca-ATPase activity assay, cardiac SR (CRC at pCa 5.4). It is filed as biochemical, porcine. The note with it: pCa 5.4, mean ± SD, n = 3; for Cardiac SR ATPase Activity Percent Increase: maximal effect of CRC. The procedure: as §1, §3
While initial screening was performed in skeletal SR enriched with the SERCA1a isoform, high sequence and structural homology with the cardiac SERCA2a isoform predicts a potential for cross reactivity of the Hit compounds. To test this hypothesis, we performed ATPase analyses with cardiac SR microsomes, which are enriched for SERCA2a.

T1 sequence (P04191 1-994 isoform P04191-2): as above
T2 sequence (P11607 1-997 isoform P11607-2): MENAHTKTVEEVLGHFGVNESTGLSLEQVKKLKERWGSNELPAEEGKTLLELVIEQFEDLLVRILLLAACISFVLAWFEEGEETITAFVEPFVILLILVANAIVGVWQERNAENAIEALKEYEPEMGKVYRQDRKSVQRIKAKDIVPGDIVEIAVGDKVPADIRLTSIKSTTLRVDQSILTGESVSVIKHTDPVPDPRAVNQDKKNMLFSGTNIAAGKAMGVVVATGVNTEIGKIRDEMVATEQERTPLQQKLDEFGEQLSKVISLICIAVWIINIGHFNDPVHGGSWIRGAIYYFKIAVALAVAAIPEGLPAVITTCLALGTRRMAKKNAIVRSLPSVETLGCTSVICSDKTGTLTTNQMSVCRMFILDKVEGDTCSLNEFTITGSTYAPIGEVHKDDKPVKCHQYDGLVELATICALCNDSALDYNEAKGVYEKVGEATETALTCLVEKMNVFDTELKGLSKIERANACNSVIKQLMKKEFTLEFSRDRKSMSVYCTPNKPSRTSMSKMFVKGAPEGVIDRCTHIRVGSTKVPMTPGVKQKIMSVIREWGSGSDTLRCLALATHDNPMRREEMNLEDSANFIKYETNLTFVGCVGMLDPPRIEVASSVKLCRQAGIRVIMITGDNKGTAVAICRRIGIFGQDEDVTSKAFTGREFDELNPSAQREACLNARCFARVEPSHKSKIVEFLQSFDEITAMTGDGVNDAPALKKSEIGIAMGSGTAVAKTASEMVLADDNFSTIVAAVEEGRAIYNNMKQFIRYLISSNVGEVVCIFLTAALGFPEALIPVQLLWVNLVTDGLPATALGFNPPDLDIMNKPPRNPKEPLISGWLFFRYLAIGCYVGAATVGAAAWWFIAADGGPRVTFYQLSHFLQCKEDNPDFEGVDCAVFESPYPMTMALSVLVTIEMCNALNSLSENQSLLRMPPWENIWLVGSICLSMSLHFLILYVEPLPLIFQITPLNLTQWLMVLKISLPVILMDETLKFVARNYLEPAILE

The term EC50 denotes the concentration needed to bring the measured effect to its halfway point. Consider `COc1cccc(-c2nn(-c3ccccc3)cc2CN(Cc2c(C)nn(C)c2C)C2CC2)c1` [Compound 18], for which, in assay [1], the “Skeletal SR Ca^2+ Uptake Activity Percent Increase” value is 8.9 ± 0.1% and the 50% effective concentration (EC50) worked out at 1.1 ± 0.3 µM. Also, in assay [2], the “Cardiac SR Ca^2+ Uptake Activity Percent Increase” value was determined as 12 ± 1% and the EC50 came to 0.9 ± 0.2 µM. In assay [3], the “Skeletal SR ATPase Activity Percent Increase” value is reported as 39 ± 1% and the EC50 was determined as 5.2 ± 0.3 µM. For the same molecule, in assay [4], the “Cardiac SR ATPase Activity Percent Increase” value turned out to be 37 ± 1% and it took 4.3 ± 0.3 µM to reach a half-maximal effect (EC50).

As for `OCc1ccccc1-c1ccc(-c2nc(CCc3ccccc3)no2)cn1` [Compound 19], in assay [1], the “Skeletal SR Ca^2+ Uptake Activity Percent Increase” value amounted to 7.2 ± 0.1% and the EC50 was found to be 1.8 ± 0.7 µM. Further, in assay [2], the “Cardiac SR Ca^2+ Uptake Activity Percent Increase” value stood at 8 ± 1% and the EC50 was 2.4 ± 0.6 µM. In assay [3], the “Skeletal SR ATPase Activity Percent Increase” value turned out to be 42 ± 2% and the EC50 is 7.3 ± 0.8 µM. Further, in assay [4], the “Cardiac SR ATPase Activity Percent Increase” value amounted to 22 ± 2% and the concentration for a half-maximal effect (EC50) came out at 6.3 ± 0.4 µM.

(Values after article PMC9776381, “A Large-Scale High-Throughput Screen for Modulators of SERCA Activity” (Biomolecules, 2022).)
